Measured values as given in article PMC4538536, “In Silico-Based High-Throughput Screen for Discovery of Novel Combinations for Tuberculosis Treatment” (Antimicrobial Agents and Chemotherapy, 2015).
In brackets after ≈: the same amount, converted by molar mass. Read-outs that look alike come from different tables or passages of the source.

Key:
[1] = In vivo pharmacokinetics in infected mice (plasma, LC-MS/MS); set-up: species or system BALB/c mice; conditions: mouse; for AUC(0-t) / Cmax: po, steady state, infected mice
M. tuberculosis H37Rv [2] = experiment: In vitro bactericidal-effect analysis (CFU enumeration of checkerboard wells); format: cell-based, Mycobacterium tuberculosis; conditions: single drug at its MIC (FIC of 1); positive = reduction in CFU
How it was run: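 Wells staying blue in REMA checkerboards with ΣFIC <0.7 (pairs) or <1.5 (triplets) plated on Middlebrook 7H10, 37°C for 21 to 28 days; CFU reduction computed versus untreated start-of-testing counts and versus each drug alone.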

M. tuberculosis H37Rv [3] = experiment: MIC determination, resazurin-based microplate assay; format: cell-based, Mycobacterium tuberculosis; conditions: Mycobacterium tuberculosis, single drug
[4] = in vivo, 25 mg/kg; cited from earlier work
[5] = BALB/c, plasma, 25 mg/kg, Group 5 triplet EMB 100/BDQ 25/SQ109 25 mg/kg oral, read-out: AUC0-24 in Triplet
[6] = BALB/c, plasma, 25 mg/kg, Group 5 triplet EMB 100/BDQ 25/SQ109 25 mg/kg oral, read-out: Cmax in Triplet
[7] = BALB/c, plasma, 50 mg/kg, Group 2 triplet SQ109 25/BDQ 25/PA824 50 mg/kg oral, read-out: AUC0-24 in Triplet
[8] = BALB/c, plasma, 50 mg/kg, Group 2 triplet SQ109 25/BDQ 25/PA824 50 mg/kg oral, read-out: Cmax in Triplet
[9] = BALB/c, plasma, 150 mg/kg, Group 2 quartet SQ109 25/BDQ 25/PA824 50/PZA 150 mg/kg oral, read-out: AUC0-24 in Quartet
[10] = BALB/c, plasma, 150 mg/kg, Group 2 quartet SQ109 25/BDQ 25/PA824 50/PZA 150 mg/kg oral, read-out: Cmax in Quartet
[11] = BALB/c, plasma, 150 mg/kg, Group 5 quartet EMB 100/BDQ 25/SQ109 25/PZA 150 mg/kg oral, read-out: AUC0-24 in Quartet
[12] = BALB/c, plasma, 150 mg/kg, Group 5 quartet EMB 100/BDQ 25/SQ109 25/PZA 150 mg/kg oral, read-out: Cmax in Quartet

COc1nc2ccc(Br)cc2cc1[C@@H](c1ccccc1)[C@@](O)(CCN(C)C)c1cccc2ccccc12 [Bedaquiline]
AUC(0-t) [1, 5]: 22200 ± 1600 ng·h/mL
Cmax [1, 6]: 2000 ± 600 ng/mL
AUC(0-t) ([1]; BALB/c, plasma, 50 mg/kg, Group 1 triplet CFZ 20/BDQ 25/PA824 50 mg/kg oral, read-out: AUC0-24 in Triplet): 21000 ± 1700 ng·h/mL
Cmax ([1]; BALB/c, plasma, 50 mg/kg, Group 1 triplet CFZ 20/BDQ 25/PA824 50 mg/kg oral, read-out: Cmax in Triplet): 1600 ± 100 ng/mL
AUC(0-t) [1, 7]: 34900 ± 5800 ng·h/mL
Cmax [1, 8]: 3600 ± 2800 ng/mL
AUC(0-t) ([1]; BALB/c, plasma, 100 mg/kg, Group 8 triplet PA824 50/BDQ 25/EMB 100 mg/kg oral, read-out: AUC0-24 in Triplet): 43300 ± 6000 ng·h/mL
Cmax ([1]; BALB/c, plasma, 100 mg/kg, Group 8 triplet PA824 50/BDQ 25/EMB 100 mg/kg oral, read-out: Cmax in Triplet): 3100 ± 200 ng/mL
AUC(0-t) ([1]; BALB/c, plasma, 150 mg/kg, Group 1 quartet CFZ 20/BDQ 25/PA824 50/PZA 150 mg/kg oral, read-out: AUC0-24 in Quartet): 30900 ± 5200 ng·h/mL
Cmax ([1]; BALB/c, plasma, 150 mg/kg, Group 1 quartet CFZ 20/BDQ 25/PA824 50/PZA 150 mg/kg oral, read-out: Cmax in Quartet): 2600 ± 500 ng/mL
AUC(0-t) [1, 9]: 31400 ± 5400 ng·h/mL
Cmax [1, 10]: 2300 ± 500 ng/mL
AUC(0-t) [1, 11]: 21500 ± 1600 ng·h/mL
Cmax [1, 12]: 1700 ± 700 ng/mL
AUC(0-t) ([1]; BALB/c, plasma, 150 mg/kg, Group 7 quartet PA824 50/BDQ 25/MXF 400/PZA 150 mg/kg oral, read-out: AUC0-24 in Quartet): 24600 ± 2900 ng·h/mL
Cmax ([1]; BALB/c, plasma, 150 mg/kg, Group 7 quartet PA824 50/BDQ 25/MXF 400/PZA 150 mg/kg oral, read-out: Cmax in Quartet): 4500 ± 1300 ng/mL
AUC(0-t) ([1]; BALB/c, plasma, 150 mg/kg, Group 8 quartet PA824 50/BDQ 25/EMB 100/PZA 150 mg/kg oral, read-out: AUC0-24 in Quartet): 50700 ± 8900 ng·h/mL
Cmax ([1]; BALB/c, plasma, 150 mg/kg, Group 8 quartet PA824 50/BDQ 25/EMB 100/PZA 150 mg/kg oral, read-out: Cmax in Quartet): 4200 ± 1500 ng/mL
AUC(0-t) ([1]; BALB/c, plasma, 400 mg/kg, Group 7 triplet PA824 50/BDQ 25/MXF 400 mg/kg oral, read-out: AUC0-24 in Triplet): 63200 ± 16700 ng·h/mL
Cmax ([1]; BALB/c, plasma, 400 mg/kg, Group 7 triplet PA824 50/BDQ 25/MXF 400 mg/kg oral, read-out: Cmax in Triplet): 3600 ± 100 ng/mL
ΔLog10 CFU/ml at the MIC (M. tuberculosis H37Rv [2]): 0.02 Log10 CFU/ml
MIC (M. tuberculosis H37Rv [3]): 0.35 µM (≈ 0.194 µg/mL)

CC(C)=CCC/C(C)=C/CNCCNC1C2CC3CC(C2)CC1C3 (centres unmarked) [SQ109]
AUC ([1]; BALB/c, plasma, oral, SQ109 25 mg/kg, EMB 100 mg/kg, in 3- and 4-drug combinations, read-out: observed AUC in combinations): 2000 to 8900 ng·h/mL
AUC(0-t) [1, 5]: 7800 ± 4900 ng·h/mL
Cmax [1, 6]: 5500 ± 5100 ng/mL
AUC(0-t) ([1]; BALB/c, plasma, 25 mg/kg, Group 6 triplet BTZ043 37.5/THI 800/SQ109 25 mg/kg oral, read-out: AUC0-24 in Triplet): 3100 ± 300 ng·h/mL
Cmax ([1]; BALB/c, plasma, 25 mg/kg, Group 6 triplet BTZ043 37.5/THI 800/SQ109 25 mg/kg oral, read-out: Cmax in Triplet): 900 ± 500 ng/mL
AUC(0-t) [1, 7]: 8900 ± 3700 ng·h/mL
Cmax [1, 8]: 5200 ± 2700 ng/mL
AUC(0-t) ([1]; BALB/c, plasma, 130 mg/kg, Group 9 triplet EMB 100/SQ109 25/LZD 130 mg/kg oral, read-out: AUC0-24 in Triplet): 4700 ± 1400 ng·h/mL
Cmax ([1]; BALB/c, plasma, 130 mg/kg, Group 9 triplet EMB 100/SQ109 25/LZD 130 mg/kg oral, read-out: Cmax in Triplet): 900 ± 400 ng/mL
AUC(0-t) [1, 9]: 5100 ± 800 ng·h/mL
Cmax [1, 10]: 3500 ± 1400 ng/mL
AUC(0-t) ([1]; BALB/c, plasma, 150 mg/kg, Group 3 quartet BTZ043 37.5/SQ109 25/MXF 200/PZA 150 mg/kg oral, read-out: AUC0-24 in Quartet): 1800 ± 400 ng·h/mL
Cmax ([1]; BALB/c, plasma, 150 mg/kg, Group 3 quartet BTZ043 37.5/SQ109 25/MXF 200/PZA 150 mg/kg oral, read-out: Cmax in Quartet): 500 ± 200 ng/mL
AUC(0-t) [1, 11]: 4900 ± 100 ng·h/mL
Cmax [1, 12]: 2700 ± 500 ng/mL
AUC(0-t) ([1]; BALB/c, plasma, 150 mg/kg, Group 6 quartet BTZ043 37.5/THI 800/SQ109 25/PZA 150 mg/kg oral, read-out: AUC0-24 in Quartet): 4900 ± 2200 ng·h/mL
Cmax ([1]; BALB/c, plasma, 150 mg/kg, Group 6 quartet BTZ043 37.5/THI 800/SQ109 25/PZA 150 mg/kg oral, read-out: Cmax in Quartet): 3100 ± 2800 ng/mL
AUC(0-t) ([1]; BALB/c, plasma, 150 mg/kg, Group 9 quartet EMB 100/SQ109 25/LZD 130/PZA 150 mg/kg oral, read-out: AUC0-24 in Quartet): 7600 ± 3600 ng·h/mL
Cmax ([1]; BALB/c, plasma, 150 mg/kg, Group 9 quartet EMB 100/SQ109 25/LZD 130/PZA 150 mg/kg oral, read-out: Cmax in Quartet): 3500 ± 3100 ng/mL
AUC(0-t) ([1]; BALB/c, plasma, 200 mg/kg, Group 3 triplet BTZ043 37.5/SQ109 25/MXF 200 mg/kg oral, read-out: AUC0-24 in Triplet): 2100 ± 800 ng·h/mL
Cmax ([1]; BALB/c, plasma, 200 mg/kg, Group 3 triplet BTZ043 37.5/SQ109 25/MXF 200 mg/kg oral, read-out: Cmax in Triplet): 700 ± 500 ng/mL
plasma exposure in combination compared with individual (reported) exposure ([1]; in vivo): higher
ΔLog10 CFU/ml at the MIC (M. tuberculosis H37Rv [2]): 1.40 Log10 CFU/ml
reported AUC [4]: 250 ng·h/mL
MIC (M. tuberculosis H37Rv [3]): 1.18 µM (≈ 0.39 µg/mL)
